Reference: US8802596B2, “Multi-functional ionic liquid compositions for overcoming polymorphism and imparting improved properties for active pharmaceutical, biological, nutritional, and energetic ingredients” (Board of Trustees of the University of Alabama, priority 2005, dated 2014)
“Also recorded” adds a separate entry of the source.

What was measured:
[1] = Thermal stability (thermalgravimetric analysis, TGA); format: physicochemical; conditions: for Tonset / Tonset5%: TGA; for Tonset(5%) - onset temperature for 5% of the decomposition / Td - temperature of total decomposition / Tonset - onset temperature of the decomposition: Table 2, no unit in table (temperature is in ° C.)
[2] = tested on: S. aureus, E. faecium, E. coli, C. albicans; assay: Average value of MIC / MBC over the four cultures; format: cell-based; conditions: for MBC Average value / MIC Average value: average over S. aureus, E. faecium, E. coli, C. albicans; for Biological activity compared with the starting quaternary ammonium chloride (average MIC and MBC): in words, refers to Tables 3 and 4
Experimental: (§1) In the biological activity measurements (tests) following bacteria were used: Staphylococcus aureus ATCC 6538, Enterococcus faecium ATCC 49474, Escherichia coli ATCC 25922 and fungi Candida albicans ATCC 10231.
(§2) Microbiological activity tests were performed using dissolution method. Determinations were performed on liquid base (background): Mueller-Hinton for bacteria and Sabouraud for fungi. Starting solution had the concentration of 1 g/cm^3. From this solution, all other solutions (lower concentrations) were prepared. To those solutions, 0.1 cm^3 of the suspensions of standard microorganisms at a concentration of 10^6 cfu cm^3 were added. The samples with bacteria were incubated for 24 h at the temperature of 37° C., and with fungi there were incubated for 48 h at the temperature of 22° C. After incubation time the MIC, Minimal Inhibitory Concentration, minimal concentration of the investigated compound at which the growth of the microorganisms is stopped (visually), was specified (recorded) for every sample. To define the MBC, Minimal Bactericidal Concentration, additionally to each solution the 10^−6 cm^3 of the inactivator was added on the base (background) (0.3% lecithin, 3% polysorbate 80 and 0.1% L-cysteine). The samples with bacteria were incubated for 48 h in the temperature of 37° C. The fungi samples were incubated for 5 days at the temperature of 22° C. MBC values were defined (specified) as the concentration at which the level of the reduction of the microorganisms was not lower than 99.99%.

[3] = tested on: Staphylococcus aureus ATCC 6538; assay: Microbiological activity test (dilution method), MIC and MBC; format: cell-based
Experimental: as §1, §2

[4] = tested on: Candida albicans ATCC 10231; assay: as above; format: cell-based
Experimental: as §1, §2

[5] = tested on: Enterococcus faecium ATCC 49474; assay: as above; format: cell-based
Experimental: as §1, §2

[6] = tested on: Escherichia coli ATCC 25922; assay: as above; format: cell-based
Experimental: as §1, §2

proteins in the body = conditions: cited from earlier work
[7] = background statement, in words; cited from earlier work
[8] = in words
Swiss-Webster male mice = conditions: tail dipped 60 seconds in DMSO solution, 1 mM and 100 mM; 47.5° C. water bath; 15, 30, 60, 120 minutes; versus lidocaine hydrochloride
Experimental: The rat tail flick test is used to determine the local anesthetic ability of lidocaine docusate compared with lidocaine hydrochloride. The rat is immobilized in a restraining sock, so that the tail is only exposed. The tail is dipped into hot water and the number of times the rat flicks its tail is recorded. When the anesthetic is applied, the rat's tail should be numb therefore it will not feel the hot water and the number of tail flicks should decrease.
For this test Swiss-Webster male mice were used. They were habituated in a restraining sock 3 times during a 10 day period. A baseline tail flick was determined for each rat in 47.5° C. water bath. […] The number of tail flicks was determined at 15, 30, 60, and 120 minutes in the 47.5° C. water bath. […] Using the following equation, one can determine the % MPE at each time for the two compounds in question. % MPE=(TFi−BL)/(10−BL)*100 • TFi=latency to withdraw tail from hot water • BL=baseline withdrawal time without the drug

[9] = S. aureus, incubated 24 h at 37° C., Mueller-Hinton
[10] = S. aureus, reduction not lower than 99.99%, 48 h at 37° C.
[11] = C. albicans, incubated 48 h at 22° C., Sabouraud
[12] = C. albicans, reduction not lower than 99.99%, 5 days at 22° C.
[13] = E. faecium, incubated 24 h at 37° C., Mueller-Hinton
[14] = E. faecium, reduction not lower than 99.99%, 48 h at 37° C.
[15] = E. coli, incubated 24 h at 37° C., Mueller-Hinton
[16] = E. coli, reduction not lower than 99.99%, 48 h at 37° C.

Molecule: CCCCCCCCCCCCOC[N+](C)(C)CCOC(C)=O.O=C([O-])c1ccccc1 [(2-acetoxyethyl)dodecyloxymethyldimethylammonium Benzoate]
- Tonset [1]: 122 °C

Molecule: CCCCCCCOC[N+](C)(C)CCOC(C)=O.O=C([O-])c1ccccc1 [(2-acetoxyethyl)heptyloxymethyldimethylammonium benzoate]
- Tonset [1]: 120 °C

Molecule: CCCCCCCCCCCOC[N+](C)(C)CCO.O=C([O-])c1ccccc1 [(2-hydroxyethyl)dimethylundecyloxymethylammonium benzoate]
- Tonset [1]: 127 °C

Molecule: CCCCCCCCCC[N+](C)(C)CCCCCCCCCC.[Cl-] [DDAC, didecyldimethylammonium chloride, reference compound]
- MBC ([2]; read-out: MBC Average value): 27.4 µg/mL
- MIC ([2]; read-out: MIC Average value): 5.5 µg/mL
- MIC ([3]; Staphylococcus aureus, ATCC6538, 24 h): 2 µg/mL
- MBC ([3]; Staphylococcus aureus, ATCC6538, 48 h): 31.2 µg/mL
- MIC ([4]; Candida albicans, ATCC10231, 48 h): 8 µg/mL
- MBC ([4]; Candida albicans, ATCC10231, 120 h): 16 µg/mL
- MIC ([5]; Enterococcus faecium, ATCC49474, 24 h): 4 µg/mL
- MBC ([5]; Enterococcus faecium, ATCC49474, 48 h): 31.2 µg/mL
- MIC ([6]; Escherichia coli, ATCC25922, 24 h): 8 µg/mL
- MBC ([6]; Escherichia coli, ATCC25922, 48 h): 31.2 µg/mL

Molecule: CCCCCCCCCC[N+](C)(C)CCCCCCCCCC.CCCCCCOC(=O)CC(C(=O)OCCCCCC)S(=O)(=O)O (stereo not drawn) [Didecyldimethylammonium Colawet MA-80]
- Tonset [1]: 226 °C
- Tonset5% [1]: 218 °C

Molecule: CCCCCCCCCC[N+](C)(C)CCCCCCCCCC.CCN1CCN(C(=O)NC(C(=O)NC2C(=O)N3C2SC(C)(C)C3C(=O)[O-])c2ccccc2)C(=O)C1=O (stereo not drawn) [Didecyldimethylammonium Piperacillin]
- Tonset [1]: 205 °C
- Tonset5% [1]: 181 °C

Molecule: CC([O-])=NS(=O)(=O)c1ccc(N)cc1.CCCCCCCCCC[N+](C)(C)CCCCCCCCCC [Didecyldimethylammonium Sulfacetamide, didecyldimethylammonium (DDA) sulfacetamide]
- Tonset [1]: 200.2 °C
- Tonset5% [1]: 183.3 °C

Molecule: CCCCCCCCCCCCCCCC[n+]1ccccc1.CCCCCCOC(=O)CC(C(=O)OCCCCCC)S(=O)(=O)[O-] (stereo not drawn) [Hexadecylpyridinium Colawet MA-80]
- Tonset [1]: 262 °C
- Tonset5% [1]: 248 °C

Molecule: CC(=O)NS(=O)(=O)c1ccc(N)cc1.CCCCCCCCCCCCCCCC[n+]1ccccc1 [Hexadecylpyridinium Sulfacetamide, hexadecylpyridinium sulfacetamide]
- Tonset [1]: 219 °C
- Tonset5% [1]: 211 °C

Molecule: CCC(C)n1ncn(-c2ccc(N3CCN(c4ccc(OCC5COC(Cn6cncn6)(c6ccc(Cl)cc6Cl)O5)cc4)CC3)cc2)c1=O (stereo not drawn) [Itraconazole, itraconazole]
- Drug bound to proteins in the body (proteins in the body): 99.8%
- Solubility in organic solvents [7]: slightly soluble in alcohol; also recorded: freely soluble in dichloromethane
- Solubility in water [7]: insoluble in water

Molecule: CC1=CC(=O)[N-]S(=O)(=O)O1.CCCCCCCCCCCC[N+](C)(C)Cc1ccccc1 [[BA][Ace], benzalkonium acesulfamate]
- Tonset(5%) - onset temperature for 5% of the decomposition [1]: 186
- MBC Average value [2]: 54.7 ppm
- MIC Average value [2]: 14.8 ppm
- Biological activity compared with the starting quaternary ammonium chloride (average MIC and MBC) [2]: high activity of the salt, slightly lower than that of the starting benzalkonium chloride
- MIC [3, 9]: 4 ppm
- MBC [3, 10]: 31.2 ppm
- MIC [4, 11]: 16 ppm
- MBC [4, 12]: 31.2 ppm
- MIC [5, 13]: 8 ppm
- MBC [5, 14]: 31.2 ppm
- MIC [6, 15]: 31.2 ppm
- MBC [6, 16]: 125 ppm

Molecule: CCCCCCCCCCCC[N+](C)(C)Cc1ccccc1.O=C1[N-]S(=O)(=O)c2ccccc21 [[BA][Sac], benzalkonium saccharinate]
- Td - temperature of total decomposition [1]: 227
- Tonset - onset temperature of the decomposition [1]: 206
- Tonset(5%) - onset temperature for 5% of the decomposition [1]: 176
- MBC Average value [2]: 35.2 ppm
- MIC Average value [2]: 11 ppm
- MIC [3, 9]: 4 ppm
- MBC [3, 10]: 31.2 ppm
- MIC [4, 11]: 16 ppm
- MBC [4, 12]: 31.2 ppm
- MIC [5, 13]: 8 ppm
- MBC [5, 14]: 16 ppm
- MIC [6, 15]: 16 ppm
- MBC [6, 16]: 62.5 ppm

Molecule: CC1=CC([O-])=NS(=O)(=O)O1.CCCCCCCCCC[N+](C)(C)CCCCCCCCCC [[DDA][Ace], didecyldimethylammonium acesulfamate]
- Td - temperature of total decomposition [1]: 245
- Tonset - onset temperature of the decomposition [1]: 201
- Tonset(5%) - onset temperature for 5% of the decomposition [1]: 182
- MBC Average value [2]: 31.4 ppm
- MIC Average value [2]: 12 ppm
- Biological activity compared with the starting quaternary ammonium chloride (average MIC and MBC) [2]: only slight difference in the biological activity
- MIC [3, 9]: 8 ppm
- MBC [3, 10]: 16 ppm
- MIC [4, 11]: 16 ppm
- MBC [4, 12]: 16 ppm
- MIC [5, 13]: 8 ppm
- MBC [5, 14]: 31.2 ppm
- MIC [6, 15]: 16 ppm
- MBC [6, 16]: 62.5 ppm

Molecule: CCCCCCCCCC[N+](C)(C)CCCCCCCCCC.O=C1[N-]S(=O)(=O)c2ccccc21 [[DDA][Sac], Didecyldimethylammonium Saccharinate]
- Td - temperature of total decomposition [1]: 221
- Tonset - onset temperature of the decomposition [1]: 211
- Tonset(5%) - onset temperature for 5% of the decomposition [1]: 184
- MBC Average value [2]: 27.6 ppm
- MIC Average value [2]: 11 ppm
- Biological activity compared with the starting quaternary ammonium chloride (average MIC and MBC) [2]: high in comparison with starting material
- MIC [3, 9]: 4 ppm
- MBC [3, 10]: 62.5 ppm
- MIC [4, 11]: 16 ppm
- MBC [4, 12]: 16 ppm
- MIC [5, 13]: 8 ppm
- MBC [5, 14]: 16 ppm
- MIC [6, 15]: 16 ppm
- MBC [6, 16]: 16 ppm

Molecule: CCCCCCCCCC[N+](C)(C)CCCCCCCCCC.Cc1ccc(S(=O)(=O)[O-])cc1 [didecyldimethylammonium p-toluenesulfonate]
- Solubility / miscibility in water [8]: insoluble in water and hexane
- Solubility in organic solvents / other media [8]: soluble in chloroform, acetone, DMSO

Molecule: CCCCC(CC)COC(=O)CC(C(=O)OCC(CC)CCCC)S(=O)(=O)O.CCN(CC)CC(=O)Nc1c(C)cccc1C (stereo not drawn) [lidocaine docusate]
- Anesthetic ability (tail flick, % MPE graphs) (Swiss-Webster male mice): higher and longer anesthetic ability than lidocaine hydrochloride

Molecule: didecyldimethylammonium N-[4-[[(2-amino-1,4-dihydro-4-oxo-6-pteridinyl)methyl]amino]benzoyl]-L-glutamate
- Tonset [1]: 201 °C
- Tonset5% [1]: 153 °C
